Results from ChEMBL document CHEMBL5120812, “Cytotoxic Nitrobenzoyl Sesquiterpenoids from an Antarctica Sponge-Derived Aspergillus insulicola” (J Nat Prod, 2022).
Activity calls are given as the source filed them. The calls are words filed in the database; no cut-off is given here.

Columns and labels:
[1] = system: PANC-1; assay: Induction of apoptosis in human PANC-1 cells assessed as late apototic cells at 2.50 uM incubated for 24 hrs by annexinV-FITC and PI staining based flow cytometry analysis (reference value: 5.71 %); type: functional; details: dose 2.5 µM
[2] = system: PANC-1; assay: Induction of apoptosis in human PANC-1 cells assessed as late apototic cells at 5 uM incubated for 24 hrs by annexinV-FITC and PI staining based flow cytometry analysis (reference value: 5.71 %); type: functional
[3] = system: PANC-1; assay: Induction of apoptosis in human PANC-1 cells assessed as necrotic cells at 1.25 uM incubated for 24 hrs by annexinV-FITC and PI staining based flow cytometry analysis (reference value: 0.14 %); type: functional
[4] = system: PANC-1; assay: Induction of apoptosis in human PANC-1 cells assessed as necrotic cells at 2.50 uM incubated for 24 hrs by annexinV-FITC and PI staining based flow cytometry analysis (reference value: 0.14 %); type: functional; details: dose 2.5 µM
[5] = system: PANC-1; assay: Induction of apoptosis in human PANC-1 cells assessed as necrotic cells at 5 uM incubated for 24 hrs by annexinV-FITC and PI staining based flow cytometry analysis (reference value: 0.14 %); type: functional
[6] = system: ASPC1; assay: Induction of apoptosis in human ASPC1 cells assessed as increase in cleaved caspase 3 level incubated for 24 hrs by Western blot analysis; type: functional, cell-based; details: dose 1.25-5 µM, DDE = dose-dependent effect
[7] = system: PANC-1; assay: Induction of apoptosis in human PANC-1 cells assessed as increase in cleaved caspase 3 level incubated for 24 hrs by Western blot analysis; type: functional, cell-based; details: dose 1.25-5 µM, DDE = dose-dependent effect
[8] = system: ASPC1; assay: Induction of apoptosis in human ASPC1 cells assessed as increase in cleaved caspase 9 level incubated for 24 hrs by Western blot analysis; type: functional, cell-based; details: dose 1.25-5 µM, DDE = dose-dependent effect
[9] = system: PANC-1; assay: Induction of apoptosis in human PANC-1 cells assessed as increase in cleaved caspase 9 level incubated for 24 hrs by Western blot analysis; type: functional, cell-based; details: dose 1.25-5 µM, DDE = dose-dependent effect
[10] = system: ASPC1; assay: Induction of apoptosis in human ASPC1 cells assessed as increase in PARP level incubated for 24 hrs by Western blot analysis; type: functional, cell-based; details: dose 1.25-5 µM, DDE = dose-dependent effect
[11] = system: PANC-1; assay: Induction of apoptosis in human PANC-1 cells assessed as increase in PARP level incubated for 24 hrs by Western blot analysis; type: functional, cell-based; details: dose 1.25-5 µM, DDE = dose-dependent effect
[12] = system: ASPC1; assay: Downregulation of survivin level in human ASPC1 cells upto 5 uM incubated for 24 hrs by Western blot analysis; type: functional, cell-based
[13] = system: PANC-1; assay: Downregulation of survivin level in human PANC-1 cells upto 5 uM incubated for 24 hrs by Western blot analysis; type: functional, cell-based
[14] = system: ASPC1; assay: Downregulation of Bcl-2 level in human ASPC1 cells upto 5 uM incubated for 24 hrs by Western blot analysis; type: functional, cell-based
[15] = system: PANC-1; assay: Downregulation of Bcl-2 level in human PANC-1 cells upto 5 uM incubated for 24 hrs by Western blot analysis; type: functional, cell-based
[16] = system: ASPC1; assay: Induction of apoptosis in human ASPC1 cells assessed as suppression of XIAP expression at upto 5 uM incubated for 24 hrs by Western blot analysis; type: functional, cell-based
[17] = system: PANC-1; assay: Induction of apoptosis in human PANC-1 cells assessed as suppression of XIAP expression at upto 5 uM incubated for 24 hrs by Western blot analysis; type: functional, cell-based
[18] = system: ASPC1; assay: Induction of apoptosis in human ASPC1 cells assessed as increase in caspase 3 enzymatic activity upto 5 uM incubated for 24 hrs by Western blot analysis; type: functional, cell-based
[19] = system: PANC-1; assay: Induction of apoptosis in human PANC-1 cells assessed as increase in caspase 3 enzymatic activity upto 5 uM incubated for 24 hrs by Western blot analysis; type: functional, cell-based
[20] = system: ASPC1; assay: Inhibition of cell migration in human ASPC1 cells at 0.94 to 3.75 uM incubated for 24 hrs by wound healing assay; type: functional, cell-based; details: dose 0.94-3.75 µM
[21] = system: PANC-1; assay: Inhibition of cell migration in human PANC-1 cells at 0.94 to 3.75 uM incubated for 24 hrs by wound healing assay; type: functional, cell-based; details: dose 0.94-3.75 µM
[22] = system: ASPC1; assay: Antiinvasive activity in human ASPC1 cells assessed as decrease in cell invasion at 0.94 to 3.75 uM incubated for 24 hrs by crystal violet staining based transwell assay; type: functional; details: dose 0.94-3.75 µM
[23] = system: ASPC1; assay: Cytotoxicity against human ASPC1 cells assessed as reduction in cell viability at 5 uM incubated for 24 hrs in presence of gemcitabine by SRB assay; type: functional, cell-based
[24] = system: PANC-1; assay: Cytotoxicity against human PANC-1 cells assessed as reduction in cell viability at 5 uM incubated for 24 hrs in presence of gemcitabine by SRB assay; type: functional, cell-based
[25] = system: ASPC1; assay: Upregulation of cleaved caspase 3 expression in human ASPC1 cells incubated for 24 hrs in presence of gemcitabine by Western blot analysis; type: functional, cell-based
[26] = system: PANC-1; assay: Upregulation of cleaved caspase 3 expression in human PANC-1 cells incubated for 24 hrs in presence of gemcitabine by Western blot analysis; type: functional, cell-based
[27] = system: PANC-1; assay: Upregulation of PARP expression in human PANC-1 cells incubated for 24 hrs in presence of gemcitabine by Western blot analysis; type: functional, cell-based
[28] = system: ASPC1; assay: Cytotoxicity against human ASPC1 cells assessed as inhibition of cell proliferation incubated for 24 to 72 hrs by SRB assay; type: functional, cell-based; details: dose 0.94-30 µM, time 24-72 hrs, DDE = dose-dependent effect
[29] = system: PANC-1; assay: Cytotoxicity against human PANC-1 cells assessed as inhibition of cell proliferation incubated for 24 to 72 hrs by SRB assay; type: functional, cell-based; details: dose 0.94-30 µM, time 24-72 hrs, DDE = dose-dependent effect
[30] = target: Epidermal growth factor receptor (Homo sapiens) (UniProt P00533); assay: Inhibition of EGFR expression in human ASPC1 cells upto 5 uM incubated for 24 hrs by Western blot analysis; type: cell-based
Epidermal growth factor receptor (Homo sapiens), sequence (P00533 whole entry): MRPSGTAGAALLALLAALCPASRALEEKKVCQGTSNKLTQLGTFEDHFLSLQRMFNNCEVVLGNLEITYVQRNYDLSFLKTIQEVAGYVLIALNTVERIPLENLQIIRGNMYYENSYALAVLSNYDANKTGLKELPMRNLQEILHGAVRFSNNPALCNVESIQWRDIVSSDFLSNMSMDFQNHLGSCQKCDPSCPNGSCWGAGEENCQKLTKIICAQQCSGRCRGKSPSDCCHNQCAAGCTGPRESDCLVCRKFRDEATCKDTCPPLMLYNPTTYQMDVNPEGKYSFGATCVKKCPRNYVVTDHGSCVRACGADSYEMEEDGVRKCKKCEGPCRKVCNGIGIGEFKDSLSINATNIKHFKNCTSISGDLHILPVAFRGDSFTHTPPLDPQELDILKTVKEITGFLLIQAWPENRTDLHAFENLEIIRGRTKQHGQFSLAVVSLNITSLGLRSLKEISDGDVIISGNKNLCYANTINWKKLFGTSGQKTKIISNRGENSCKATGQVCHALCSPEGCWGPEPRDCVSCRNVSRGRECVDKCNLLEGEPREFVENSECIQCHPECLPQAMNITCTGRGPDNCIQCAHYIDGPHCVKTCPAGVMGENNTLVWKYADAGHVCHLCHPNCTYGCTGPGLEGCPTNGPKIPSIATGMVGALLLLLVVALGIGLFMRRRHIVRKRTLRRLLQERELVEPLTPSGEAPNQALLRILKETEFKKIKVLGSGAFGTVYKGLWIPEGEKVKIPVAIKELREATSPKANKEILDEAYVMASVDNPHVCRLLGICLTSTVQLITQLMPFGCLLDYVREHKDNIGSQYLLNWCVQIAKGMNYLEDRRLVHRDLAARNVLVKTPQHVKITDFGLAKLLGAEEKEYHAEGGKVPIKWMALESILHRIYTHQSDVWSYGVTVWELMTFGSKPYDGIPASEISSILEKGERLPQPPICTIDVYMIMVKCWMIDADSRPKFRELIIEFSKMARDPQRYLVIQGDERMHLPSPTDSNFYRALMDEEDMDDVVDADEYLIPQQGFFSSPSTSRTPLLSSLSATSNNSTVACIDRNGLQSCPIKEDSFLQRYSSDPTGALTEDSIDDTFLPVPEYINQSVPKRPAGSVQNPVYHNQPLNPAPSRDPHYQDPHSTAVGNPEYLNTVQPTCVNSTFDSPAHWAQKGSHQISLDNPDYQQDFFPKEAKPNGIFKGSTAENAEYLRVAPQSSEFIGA

[31] = target: Epidermal growth factor receptor (Homo sapiens) (UniProt P00533); assay: Inhibition of EGFR expression in human PANC-1 cells upto 5 uM incubated for 24 hrs by Western blot analysis; type: cell-based

inhibition [30]: Active | inhibition [31]: Active
SMILES: COC(=O)CCCCCCC/C=C/C(=O)OC[C@@]1(C)CCC[C@@]2(C)[C@H]1[C@H](OC(=O)c1ccc([N+](=O)[O-])cc1)C=C1C(=O)OC[C@@]12O
Activity [1]: 13.6% | Activity [2]: 23.1% | Activity [3]: 0.22% | Activity [4]: 0.25% | Activity [5]: 0.11% | Activity [6]: Dde | Activity [7]: Dde | Activity [8]: Dde | Activity [9]: Dde | Activity [10]: Dde | Activity [11]: Dde | Activity [12]: Active | Activity [13]: Active | Activity [14]: Active | Activity [15]: Active | Activity [16]: Active | Activity [17]: Active | Activity [18]: Active | Activity [19]: Active | inhibition [20]: Active | inhibition [21]: Active | Activity [22]: Active | Activity [23]: Active | Activity [24]: Active | Activity [25]: Active | Activity [26]: Active | Activity [27]: Active | Activity [28]: Dde | Activity [29]: Dde
